Molecular target: T1, hROMK (hKir1.1) (Homo sapiens, UniProt P48048)
T1 construct: expressed in transfected cells
T1 sequence (P48048 1-391): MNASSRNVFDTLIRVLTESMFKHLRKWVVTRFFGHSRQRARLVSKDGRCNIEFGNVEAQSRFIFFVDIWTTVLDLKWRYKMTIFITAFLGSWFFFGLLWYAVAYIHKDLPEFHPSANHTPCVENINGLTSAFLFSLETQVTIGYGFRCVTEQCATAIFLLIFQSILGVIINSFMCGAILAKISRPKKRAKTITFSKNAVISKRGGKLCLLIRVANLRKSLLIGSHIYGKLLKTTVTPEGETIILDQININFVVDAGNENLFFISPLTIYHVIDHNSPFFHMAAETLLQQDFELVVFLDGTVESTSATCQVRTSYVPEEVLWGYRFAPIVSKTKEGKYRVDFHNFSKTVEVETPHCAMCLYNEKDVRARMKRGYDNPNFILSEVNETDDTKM
Test: Thallium Flux Assay (ROMK channel functional thallium flux assay, FLIPR-Tetra)
Type: cell-based
Settings: HEK293 cells stably expressing hROMK; 30 min incubation with compound
Experimental: The following Thallium Flux Assay was performed on each of the final product compounds in the Examples. When the final product of an Example was an HCl salt, the salt was run in the Assay.
HEK293 cells stably expressing hROMK (hKir1.1) were grown at 37° C. in a 10% CO2 humidified incubator in complete growth media: Dulbecco's Modified Eagle Medium supplemented with non-essential amino acids, Penicillin/Streptomycin/Glutamine, G418 and FBS. At >80% confluency, aspirate the media from the flask and rinse with 10 mL Calcium/Magnesium-free PBS. Add 5 mL of 1× trypsin (prepared in Ca/Mg Free PBS) to T-225 flask and return flask to 37° C./CO2 incubator for 2-3 minutes. To dislodge the cell, gently bang the side of the flask with your hand. Triturate the cells completely and then transfer the cells to 25 mL complete media. Centrifuge at 1,500 rpm for 6 min followed by resuspension in complete growth media and determine cell concentration. For typical re-seeding, 4E6 cells/T-225 flask will attain >80% confluency in 4 days. Under ideal growth conditions and appropriate tissue culture practices, this cell line is stable for 40-45 passages.
FluxOR Kit Components (Invitrogen F10017)
• FluxOR™ Reagent (Component A) • FluxOR™ Assay Buffer (Component B)—10× Concentrate • PowerLoad™ Concentrate (Component C)—100× Concentrate • Probenecid (Component D)—Lyophilized sample is kept at −20° C. Water soluble, 100× after solubilization in 1 mL water. Store at 4° C. • FluxOR™ Chloride-free Buffer (Component E)—5× Concentrate • Potassium sulfate (K2SO4) Concentrate (Component F)—125 mM in water. Store at 4° C. • Thallium sulfate (Tl2SO4) Concentrate (Component G)—50 mM in water. Store at 4° C. • DMSO (dimethyl sulfoxide, Component H)—1 mL (100%) Reagent Preparation: FluxOR Working Solutions • 1000× FluxOR™ Reagent: Reconstitute a vial of component A in 100 μl DMSO; Mix well; Store 10 μl aliquots at −20° C. • 1× FluxOR™ Assay Buffer: Dilute Component B 10-fold with water; Adjust pH to 7.4 with Hepes/NaOH; Filter and store at 4° C. • Probenecid/Assay Buffer: 100 mL of 1× FluxOR™ Assay Buffer; 1 mL of reconstituted component D; Store at 4° C. • Loading Buffer (per microplate): 10 μl 1000× FluxOR™ Reagent; 100 μl component C; 10 mL Probenecid/Assay Buffer • Compound Buffer (per microplate): 20 mL Probenecid/Assay Buffer; 0.3 mM ouabain (10 mM ouabain in water can be stored in amber bottle/aluminum foil at room temperature); Test compound • 1× FluxOR™ Chloride-Free Buffer: Prepare 1× working solution in water. Can be stored at room temperature • Stimulant Buffer (prepared at 5× final concentration in 1× FluxOR™ Chloride-Free Buffer): 7.5 mM Thallium sulfate and 0.75 mM Potassium sulfate (to give a final assay concentration of 3 mM Thallium/0.3 mM Potassium). Store at 4° C. when not in use. Assay Protocol—
The ROMK channel functional thallium flux assay is performed in 384 wells, using the FLIPR-Tetra instrument. HEK-hKir1.1 cells are seeded in Poly-D-Lysine microplates and kept in a 37° C.-10% CO2 incubator overnight. On the day of the experiment, the growth media is replaced with the FluxOR™ reagent loading buffer and incubated, protected from light, at ambient temperature (23-25° C.) for 90 min. The loading buffer is replaced with assay buffer±test compound followed by 30 min incubation at ambient temperature, where the Thallium/Potassium stimulant is added to the microplate.
1. Seed HEK-hKir1.1 cells (50 μl at 20,000 cells/well) in 384-well PDL coated Microplates
2. Allow cells to adhere overnight in humidified 37° C./10% CO2 incubator
3. Completely remove cell growth media from microplate and replace with 25 μl loading buffer
4. Incubate Microplate at room temperature, protected form light, for 90 min
5. Remove loading buffer and replace with 25 μl 1× Assay Buffer±test compound.
6. Incubate microplate at room temperature, protected from light, for 30 min
7. At FLIPR-Tetra 384: Add stimulant (Thallium/Potassium) solution to microplate and monitor fluorescence. […]

Compared with `Cc1c(C(O)CN2CCc3c(cnn3-c3ccc4c(c3)COC4=O)C2)ccc2c1COC2=O` (stereo not drawn) [Example 33, 5-{1-hydroxy-2-[1-(1-oxo-1,3-dihydro-2-benzofuran-5-yl)-1,4,6,7-tetrahydro-5H-pyrazolo[4,3-c]pyridin-5-yl]ethyl}-4-methyl-2-benzofuran-1(3H)-one], `Cc1c(C(O)CN2CCn3c(nn(-c4ccc5c(c4)COC5=O)c3=O)C2)ccc2c1COC2=O` (stereo not drawn) [Example 37, 7-[2-hydroxy-2-(4-methyl-1-oxo-1,3-dihydro-2-benzofuran-5-yl)ethyl]-2-(1-oxo-1,3-dihydro-2-benzofuran-5-yl)-5,6,7,8-tetrahydro[1,2,4]triazolo[4,3-a]pyrazin-3(2H)-one] is 4.3-fold higher in IC50: 67 nM for the first, 291 nM for the second.

Compared with `Cc1c(C(O)CN2CCn3cc(-c4ccc5c(c4)COC5=O)nc3C2)ccc2c1COC2=O` (stereo not drawn) [Example 34, 5-{1-hydroxy-2-[2-(1-oxo-1,3-dihydro-2-benzofuran-5-yl)-5,6-dihydroimidazo[1,2-a]pyrazin-7(8H)-yl]ethyl}-4-methyl-2-benzofuran-1(3H)-one], `COc1cc(-c2cn3c(n2)CN(CC(O)c2ccc4c(c2C)COC4=O)CC3)ccc1C#N` (stereo not drawn) [Example 35, 4-{7-[2-hydroxy-2-(4-methyl-1-oxo-1,3-dihydro-2-benzofuran-5-yl)ethyl]-5,6,7,8-tetrahydroimidazo[1,2-a]pyrazin-2-yl}-2-methoxybenzonitrile] is 1.5-fold higher in IC50: 99.4 nM for the first, 154 nM for the second.

`Cc1c(C(O)CN2CCn3c(nn(-c4ccc(C#N)c(F)c4)c3=O)C2)ccc2c1COC2=O` (stereo not drawn) [Example 36, 2-fluoro-4-{7-[2-hydroxy-2-(4-methyl-1-oxo-1,3-dihydro-2-benzofuran-5-yl)ethyl]-3-oxo-5,6,7,8-tetrahydro[1,2,4]triazolo[4,3-a]pyrazin-2(3H)-yl}benzonitrile] and `Cc1c([C@@H](O)CN2CCc3c(-c4ccc(C#N)c(F)c4)n[nH]c3C2)ccc2c1COC2=O` [Example 42, 3-(4-cyano-3-fluorophenyl)-6-((R)-2-hydroxy-2-(4-methyl-1-oxo-1,3-dihydroisobenzofuran-5-yl)ethyl)-4,5,6,7-tetrahydro-1H-pyrazolo[3,4-c]pyridine] are within 1.5-fold of each other in IC50: 163 nM for the first, 173 nM for the second.

Going from `Cc1c(C(O)CN2CCc3nc(-c4ccc(C#N)c(F)c4)ncc3C2)ccc2c1COC2=O` (stereo not drawn) [Example 38, 2-fluoro-4-{6-[2-hydroxy-2-(4-methyl-1-oxo-1,3-dihydro-2-benzofuran-5-yl)ethyl]-5,6,7,8-tetrahydropyrido[4,3-d]pyrimidin-2-yl}benzonitrile] to `Cc1c(C(O)CN2CCc3nc(-c4ccc(C#N)cc4F)ncc3C2)ccc2c1COC2=O` (stereo not drawn) [Example 41, 3-fluoro-4-{6-[2-hydroxy-2-(4-methyl-1-oxo-1,3-dihydro-2-benzofuran-5-yl)ethyl]-5,6,7,8-tetrahydropyrido[4,3-d]pyrimidin-2-yl}benzonitrile], the IC50 rises from 82 nM to 463 nM (5.6-fold). The first is the more potent here.

Compared with `Cc1cc(C#N)ccc1-c1ncc2c(n1)CCN(CC(O)c1ccc3c(c1C)COC3=O)C2` (stereo not drawn) [Example 39, 4-{6-[2-hydroxy-2-(4-methyl-1-oxo-1,3-dihydro-2-benzofuran-5-yl)ethyl]-5,6,7,8-tetrahydropyrido[4,3-d]pyrimidin-2-yl}-3-methylbenzonitrile], `Cc1c(C(O)CN2CCc3nc(-c4ccc(C#N)cn4)ncc3C2)ccc2c1COC2=O` (stereo not drawn) [Example 40, 6-{6-[2-hydroxy-2-(4-methyl-1-oxo-1,3-dihydro-2-benzofuran-5-yl)ethyl]-5,6,7,8-tetrahydropyrido[4,3-d]pyrimidin-2-yl}pyridine-3-carbonitrile] is 2.2-fold lower in IC50: 337 nM for the first, 155 nM for the second.

Going from `Cc1c([C@@H](O)CN2CCc3c(cnn3-c3ccc(C#N)cn3)C2)ccc2c1COC2=O` [Example 43, 6-{5-[(2R)-2-hydroxy-2-(4-methyl-1-oxo-1,3-dihydro-2-benzofuran-5-yl)ethyl]-4,5,6,7-tetrahydro-1H-pyrazolo[4,3-c]pyridin-1-yl}pyridine-3-carbonitrile] to `Cc1cc(C#N)ccc1C1C[C@H]2CN(C[C@H](O)c3ccc4c(c3C)COC4=O)CCN2C1` (stereo partly drawn) [Example 45, 4-{(8aS)-2-[(2R)-2-hydroxy-2-(4-methyl-1-oxo-1,3-dihydro-2-benzofuran-5-yl)ethyl]octahydropyrrolo[1,2-a]pyrazin-7-yl}-3-methylbenzonitrile], the IC50 falls from 592 nM to 131 nM (4.5-fold). The second is the more potent here.

`Cc1c([C@@H](O)CN2CCn3c(-c4ccc5c(c4)C[C@H](C)OC5=O)cnc3C2)ccc2c1COC2=O` [Example 44, (3S)-6-{7-[(2R)-2-hydroxy-2-(4-methyl-1-oxo-1,3-dihydro-2-benzofuran-5-yl)ethyl]-5,6,7,8-tetrahydroimidazo[1,2-a]pyrazin-3-yl}-3-methyl-3,4-dihydro-1H-isochromen-1-one] and `Cc1c([C@@H](O)CN2CCc3cc(-c4ccc5c(c4)C[C@H](C)OC5=O)ccc3C2)ccc2c1COC2=O` [Example 47, 2-[(2R)-2-hydroxy-2-(4-methyl-1-oxo-1,3-dihydro-2-benzofuran-5-yl)ethyl]-6-[(3S)-3-methyl-1-oxo-3,4-dihydro-1H-isochromen-6-yl]-1,2,3,4-tetrahydroisoquinoline] are within 1.5-fold of each other in IC50: 301 nM for the first, 249 nM for the second.

Compound `Cc1c([C@@H](O)CN2CCN3CC(c4ccc5c(c4)C[C@@H](C)OC5=O)C[C@H]3C2)ccc2c1COC2=O` (stereo partly drawn) [Example 46, (3R)-6-{(8aS)-2-[(2R)-2-hydroxy-2-(4-methyl-1-oxo-1,3-dihydro-2-benzofuran-5-yl)ethyl]octahydropyrrolo[1,2-a]pyrazin-7-yl}-3-methyl-3,4-dihydro-1H-isochromen-1-one] has an IC50 of 81.4 nM.

Molecular target: T2, ROMK (Kir1.1) (Homo sapiens, UniProt P48048)
T2 sequence (P48048 1-391): T1 sequence (P48048 1-391)
Test: 86Rb+ Efflux Assay, described in WO2013/062892 at pages 79-80
Type: cell-based
Settings: values marked "(Rb)" in Table 10
Description: The data for Examples 2, 3, 4, 8, 9, 10, 15 and 32 were obtained using the ^86Rb^+ Efflux Assay, described in WO2013/062892 at pages 79-80.

`N#Cc1ccc(-c2ncc3c(n2)CCN(CCc2ccc4c(c2)COC4=O)C3)cc1` [Example 2, 4-{6-[2-(1-oxo-1,3-dihydro-2-benzofuran-5-yl)ethyl]-5,6,7,8-tetrahydropyrido[4,3-d]pyrimidin-2-yl}benzonitrile] and `Cc1c(CCN2CCc3nc(-c4ccc(C#N)cc4)ncc3C2)ccc2c1COC2=O` [Example 4, 4-{6-[2-(4-methyl-1-oxo-1,3-dihydro-2-benzofuran-5-yl)ethyl]-5,6,7,8-tetrahydropyrido[4,3-d]pyrimidin-2-yl}benzonitrile] are within 1.5-fold of each other in IC50: 306 nM for the first, 304 nM for the second.

`N#Cc1ccc(-n2ncc3c2CCN(CCc2ccc4c(c2)COC4=O)C3)cc1` [Example 3, 4-{5-[2-(1-oxo-1,3-dihydro-2-benzofuran-5-yl)ethyl]-4,5,6,7-tetrahydro-1H-pyrazolo[4,3-c]pyridin-1-yl}benzonitrile] was tested, and the IC50 was 501 nM.
